Results as given in PubChem BioAssay AID248 (DTP/NCI, 2004).
“And” between values parts separate entries of the source, which are not always exact repeats. Equal entries are not always repeated. Toxic doses and inconclusive results are not listed. No stated cut-off is given here; in the data, active means T/C of 150% or more; inactive means T/C below 125%.

Test system: L1210 leukemia ip in BDF1 mice, survival T/C
Experiment: NCI In Vivo Anticancer Drug Screen. Data for tumor model L1210 Leukemia (intraperitoneal) in B6D2F1 (BDF1) mice
Conditions: endpoint: mean survival time, higher = longer survival
Procedure, shortened: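 Antitumor effect is assessed in tumor-bearing animals. Survival in the compound arm is compared with a vehicle-dosed control arm and expressed as their quotient.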

[1] = dose: 100.0 mg/kg/injection, schedule: Q04DX003 (ip), vehicle: saline with Tween-80
[2] = dose: 200.0 mg/kg/injection, schedule: Q04DX003 (ip), vehicle: saline with Tween-80
[3] = dose: 400.0 mg/kg/injection, schedule: Q04DX003 (ip), vehicle: saline with Tween-80
[4] = dose: 100.0 mg/kg/injection, schedule: Q01DX009 (ip), vehicle: Klucel (hydroxypropylcellulose) (HPC)
[5] = dose: 100.0 mg/kg/injection, schedule: Q04DX002 (ip), vehicle: Klucel (hydroxypropylcellulose) (HPC)
[6] = dose: 200.0 mg/kg/injection, schedule: Q01DX009 (ip), vehicle: Klucel (hydroxypropylcellulose) (HPC)
[7] = dose: 200.0 mg/kg/injection, schedule: Q04DX002 (ip), vehicle: Klucel (hydroxypropylcellulose) (HPC)
[8] = dose: 400.0 mg/kg/injection, schedule: Q01DX009 (ip), vehicle: Klucel (hydroxypropylcellulose) (HPC)
[9] = dose: 400.0 mg/kg/injection, schedule: Q04DX002 (ip), vehicle: Klucel (hydroxypropylcellulose) (HPC)
[10] = dose: 100.0 mg/kg/injection, schedule: Q01DX001 (ip), vehicle: saline
[11] = dose: 200.0 mg/kg/injection, schedule: Q01DX001 (ip), vehicle: saline
[12] = dose: 400.0 mg/kg/injection, schedule: Q01DX001 (ip), vehicle: saline
[13] = dose: 100.0 mg/kg/injection, schedule: Q04DX003 (ip), vehicle: Klucel (hydroxypropylcellulose) (HPC)
[14] = dose: 200.0 mg/kg/injection, schedule: Q04DX003 (ip), vehicle: Klucel (hydroxypropylcellulose) (HPC)
[15] = dose: 400.0 mg/kg/injection, schedule: Q04DX003 (ip), vehicle: Klucel (hydroxypropylcellulose) (HPC)

Measured: T/C

CCOC(=O)CCC(C(=O)OCC)C(=O)OCC
inactive: dose: 100.0 mg/kg/injection, schedule: Q01DX009 (ip), vehicle: saline with Tween-80 86 % of control | [1] 106 % of control | dose: 200.0 mg/kg/injection, schedule: Q01DX009 (ip), vehicle: saline with Tween-80 88 % of control | [2] 103 % of control | dose: 400.0 mg/kg/injection, schedule: Q01DX009 (ip), vehicle: saline with Tween-80 88 % of control | [3] 94 % of control

CCc1ccccc1NC(=O)Nc1cc(C)ccn1
inactive: [4] 102 % of control | [5] 102 % of control | [6] 107 % of control | [7] 102 % of control | [8] 102 % of control | [9] 106 % of control

CC(C)(C)NC(=O)NCc1ccc(Cl)c(Cl)c1
inactive: [4] 92 % of control | [6] 93 % of control | [8] 98 % of control

COc1cc(CC(=O)O)c([N+](=O)[O-])cc1OC
inactive: dose: 100.0 mg/kg/injection, schedule: Q01DX001 (ip), vehicle: carboxymethylcellulose (CMC) 97 % of control | [4] 114 % of control | dose: 200.0 mg/kg/injection, schedule: Q01DX001 (ip), vehicle: carboxymethylcellulose (CMC) 110 % of control | [6] 103 % of control | dose: 400.0 mg/kg/injection, schedule: Q01DX001 (ip), vehicle: carboxymethylcellulose (CMC) 110 % of control | [8] 101 % of control

O=C(C=C(C(F)(F)F)C(F)(F)F)c1ccc(Cl)c([N+](=O)[O-])c1
inactive: dose: 0.5 mg/kg/injection, schedule: Q01DX009 (ip), vehicle: other 98 % of control | dose: 1.0 mg/kg/injection, schedule: Q01DX009 (ip), vehicle: other 95 % of control | dose: 2.5 mg/kg/injection, schedule: Q01DX009 (ip), vehicle: other 101 % of control | dose: 2.5 mg/kg/injection, schedule: Q01DX009 (ip), vehicle: saline with Tween-80 96 % of control | dose: 6.0 mg/kg/injection, schedule: Q01DX001 (ip), vehicle: saline with Tween-80 103 % of control | dose: 12.0 mg/kg/injection, schedule: Q01DX001 (ip), vehicle: saline with Tween-80 98 % of control | dose: 25.0 mg/kg/injection, schedule: Q01DX001 (ip), vehicle: saline with Tween-80 95 % of control and 100 % of control

O=C(O)/C=C\C(=O)Nc1ccccc1Cl
inactive: [4] 102 % of control | [6] 100 % of control | [8] 97 % of control

O=C(O)c1ccccc1NC(C(=O)O)c1ccccc1 (configuration not stated)
inactive: dose: 100.0 mg/kg/injection, schedule: Q04DX002 (ip), vehicle: saline with Tween-80 100 % of control | dose: 200.0 mg/kg/injection, schedule: Q04DX002 (ip), vehicle: saline with Tween-80 96 % of control | dose: 400.0 mg/kg/injection, schedule: Q04DX002 (ip), vehicle: saline with Tween-80 96 % of control

CCOc1cc(OCC)c(/C=C/[N+](=O)[O-])c(OCC)c1
inactive: [5] 87 % of control | [7] 97 % of control | [9] 100 % of control

O=C(N/N=C/c1ccc(Cl)cc1)c1ccc(Cl)cc1
inactive: [1] 105 % of control | [2] 98 % of control | [3] 91 % of control

O=c1[nH]cnc2c1[nH]c(=S)n2C1OC(CO)C(O)C1O (configuration not stated)
inactive: [10] 108 % of control | [11] 96 % of control | [12] 100 % of control

CCOC(=O)/C=C(/Nc1ccc(OC)cc1[N+](=O)[O-])C(=O)OCC
inactive: [10] 95 % of control | [11] 95 % of control | [12] 104 % of control

OCC(CO)=C1c2ccccc2-c2ccccc21
inactive: dose: 100.0 mg/kg/injection, schedule: Q## X003 (ip), vehicle: acetone 102 % of control | dose: 200.0 mg/kg/injection, schedule: Q## X003 (ip), vehicle: acetone 101 % of control | dose: 400.0 mg/kg/injection, schedule: Q## X003 (ip), vehicle: acetone 104 % of control

O=Cc1cc2cccnc2s1
inactive: [13] 103 % of control | [14] 100 % of control | [15] 100 % of control

CSc1ncc(CO)c(NC(C)(C)C)n1
inactive: dose: 100.0 mg/kg/injection, schedule: Q04DX003 (ip), vehicle: saline 96 % of control | dose: 200.0 mg/kg/injection, schedule: Q04DX003 (ip), vehicle: saline 100 % of control | dose: 400.0 mg/kg/injection, schedule: Q04DX003 (ip), vehicle: saline 100 % of control

COc1ccc(CN(CC(=O)O)S(C)(=O)=O)cc1
inactive: dose: 100.0 mg/kg/injection, schedule: Q01DX009 (ip), vehicle: other 110 % of control | dose: 100.0 mg/kg/injection, schedule: Q04DX003 (ip), vehicle: other 90 % of control | dose: 200.0 mg/kg/injection, schedule: Q01DX009 (ip), vehicle: other 107 % of control | dose: 200.0 mg/kg/injection, schedule: Q04DX003 (ip), vehicle: other 98 % of control | dose: 400.0 mg/kg/injection, schedule: Q01DX009 (ip), vehicle: other 111 % of control | dose: 400.0 mg/kg/injection, schedule: Q04DX003 (ip), vehicle: other 95 % of control

COC(=O)c1ccc(N)cc1O
inactive: dose: 25.0 mg/kg/injection, schedule: Q01DX009 (ip), vehicle: Klucel (hydroxypropylcellulose) (HPC) 101 % of control | dose: 50.0 mg/kg/injection, schedule: Q01DX009 (ip), vehicle: Klucel (hydroxypropylcellulose) (HPC) 106 % of control | [4] 99 % of control and 101 % of control | [13] 98 % of control | [6] 105 % of control | [14] 102 % of control | [15] 93 % of control

COC(=O)CCC(NC(=O)C1CCN(C(=O)OCc2ccccc2)CC1)C(=O)OC (configuration not stated)
inactive: [10] 99 % of control | dose: 100.0 mg/kg/injection, schedule: Q01DX009 (ip), vehicle: saline 103 % of control | dose: 100.0 mg/kg/injection, schedule: Q04DX003 (ip), vehicle: acetone 95 % of control | [11] 100 % of control | dose: 200.0 mg/kg/injection, schedule: Q01DX009 (ip), vehicle: saline 102 % of control | dose: 200.0 mg/kg/injection, schedule: Q04DX003 (ip), vehicle: acetone 98 % of control | [12] 94 % of control | dose: 400.0 mg/kg/injection, schedule: Q01DX009 (ip), vehicle: saline 103 % of control | dose: 400.0 mg/kg/injection, schedule: Q04DX003 (ip), vehicle: acetone 98 % of control
